Results taken from publication PMC8304783, “Antiadhesive Properties of Imidazolium Ionic Liquids Based on (−)-Menthol Against Candida spp” (International Journal of Molecular Sciences, 2021).

Columns and labels:
Format in all cases: cell-based
C. albicans SC5314 = test: Minimal inhibitory and fungicidal concentrations (broth microdilution, CLSI M27-A3 modified); details: Candida albicans, 28 °C; for MFC: 120 h, replated on YPD agar, 5 days, read-out: Minimal fungicidal concentration (MFC); for MIC90: ≥90% growth inhibition, 48 h, YPD, read-out: Minimal inhibitory concentration (MIC90)
Method: (§1) Experiments were performed according to the Clinical and Laboratory Standards Institute (2008), 3rd ed. M27-A3 [51], with modifications described previously. Briefly, MICs were determined by serially diluting ILs in YPD medium in sterile 96-well plates (Sarstedt) and inoculating with fungal suspensions (final OD600 per well = 0.01). After incubation (48 h; 28 °C), the OD600 was measured (ASYS UVM 340 Biogenet). […] Each well was then replated on YPD agar and incubated for 5 days at 28 °C.

C. parapsilosis CBS10947 = test: as above; details: Lodderomyces parapsilosis, 28 °C; for MFC: 120 h, replated on YPD agar, 5 days, read-out: Minimal fungicidal concentration (MFC); for MIC90: ≥90% growth inhibition, 48 h, YPD, read-out: Minimal inhibitory concentration (MIC90)
Method: as §1

C. glabrata ATCC90030 = test: as above; details: Nakaseomyces glabratus, 28 °C; for MFC: 120 h, replated on YPD agar, 5 days, read-out: Minimal fungicidal concentration (MFC); for MIC90: ≥90% growth inhibition, 48 h, YPD, read-out: Minimal inhibitory concentration (MIC90)
Method: as §1

C. krusei ATCC6258 = test: as above; details: Pichia kudriavzevii, 28 °C; for MFC: 120 h, replated on YPD agar, 5 days, read-out: Minimal fungicidal concentration (MFC); for MIC90: ≥90% growth inhibition, 48 h, YPD, read-out: Minimal inhibitory concentration (MIC90)
Method: as §1

C. albicans [1] = test: Yeast-to-hyphae transition (FBS-induced hyphae formation); details: FBS-induced (10%), ILs 25 µM, 2 h, 37 °C; control 94 ± 0.6%
Method: Fungal adhesion to biomedical surfaces is strongly related to the structure of the cell wall, and the presence of adhesins (Als proteins) on the surface of the cell. In turn, the progression to biofilm formation is dependent on the ability of C. albicans to form hyphae. In conditions similar to those above (ILs conc. = 25 µM), we examined C. albicans cell wall integrity, its ability to form hyphae, and the level of ALS genes expression, encoding Als1 and Als5 adhesins (Figure 3). […] Despite some reduction, the result was not statistically significant (p = 0.12). On the other hand, after the treatment with IL 2a, the expression of ALS1 and ALS5 genes was reduced by 50 or 55%, respectively (Figure 3C). The results were statistically significant in both cases (p = 0.04 for either ALS gene). However, in case of compounds with alkyl substituents (1a and 1b), the reduction of gene expression was to a lesser degree. […] Despite observing a chain-length dependence, the results were not statistically significant (p = 0.07 for both ALS gene after treatment with 1b).
Experiments were performed as described before, with modifications. YPD-grown C. albicans were pelleted, washed with fresh YPD medium and resuspended in YPD medium (OD600 = 0.4). The suspensions were treated with ILs (conc. = 25 µM) and FBS (final conc. = 10%) for 2 h at 37 °C. The samples were observed under the Zeiss Axio Imager A2 microscope equipped with Canon PowerShot G10 camera for assessment of cell morphology. For quantitative estimation, cells of each assay were counted in three independent repetitions determining the percentage of hyphae forming cells.

C. albicans [2] = test: Detachment of adherent cells from polystyrene (crystal violet); details: C. albicans on polystyrene, 2 h treatment; over MIC, 2 × MIC and 4 × MIC
Method: (§2) Thus, for the evaluation of ILs on fungal adhesion, higher concentrations were used, corresponding to 1, 2 and 4 times the MIC90 values (Figure 1).
(§3) Figure 1 Detachment of adherent Candida spp. cells after 2 h incubation on polystyrene surfaces by ionic liquids (ILs) (A) or amphotericin B (AMB) (B) (means ± SD; n = 3). Results are presented as percentage of adherent cells relative to untreated controls (100% adhesion). Statistical analysis of detachment at each concentration was performed towards corresponding control experiments (fungi untreated by ILs or AMB = 100% adhesion) (*, p < 0.05 and **, p < 0.01).
(§4) Post-adherence treatment with ILs was performed in a similar manner to that described previously by our team. Candida spp. suspensions were prepared by centrifuging YPD-grown cultures and resuspending fungal mass in PBS to an OD600 = 0.6. Sterile 96-well plates were inoculated with the prepared suspensions and incubated for 2 h at 37 °C to induce fungal adhesion. Afterwards, adherent cells were washed with PBS to remove planktonic cells and treated with ILs (concentrations equivalent to 1, 2 or 4 × MIC90 for each fungi) for 2 h at 37 °C. Then, each well was washed with PBS and adherent cells were fixed with 0.1% CV solution for 5 min, and washed with PBS. Cells were then treated with a solution of isopropanol 0.04 N HCL with 0.1% SDS to permeabilize adherent cells and release the CV dye. The absorbance of CV was measured at 590 nm (ASYS UVM 340 Biogenet). The percentage of cells that were removed was determined in comparison to adherent cells treated with PBS only (designated 100% adhesion).

C. krusei = test: as above; details: C. krusei on polystyrene, 2 h treatment; over MIC, 2 × MIC and 4 × MIC
Method: as §2, §3, §4

C. parapsilosis = test: as above; details: C. parapsilosis on polystyrene, 2 h treatment, 2 × MIC and 4 × MIC
Method: as §2, §3, §4

sheep erythroid PMs = test: Hemolysis assay; details: sheep RBCs
Method: To examine any possible toxic effect towards animal cells, ILs were tested for their lytic activity on sheep erythroid PMs, in comparison to AMB (Table 3). For this part of study, higher concentrations were selected, corresponding to MFC values of tested fungi (12.5; 25 and 50 µM in case of ILs, and 0.25; 0.5 and 1 µM in case of AMB, Table 1). The compounds were ranked in terms of hemolytic activity as follows: 1a > 1b > 2a. IL with alkoxymethyl chain (2a) produced <5% hemolysis, regardless of the concentration used. Compounds with alkyl substituents (1a and 1b) were more hemolytic in 12.5 than in 25 µM concentrations, and in the highest concentration (50 µM), both compounds produced >10% and >5% hemolysis, respectively.
ILs were tested for hemolytic activity, as described previously. Briefly, 5 mL of fresh sheep blood was centrifuged (2000 rpm, 15 min), washed with PBS and resuspended in PBS to achieve hematocrit level of 50%. Red blood cells (RBCs) were treated with ILs (concentrations = 12.5, 25 and 50 µM) for 2 h at 37 °C. Afterwards, RBCs were centrifuged (2000 rpm, 5 min) and the absorbance of the supernatant was measured at 540 nm (ASYS UVM 340 Biogenet). The percentage of hemolysis was determined in comparison to the hemoglobin absorbance released by a 1% SDS solution (100% hemolysis).

[3] = ILs conc. 12.5 µM, 2 h, 37 °C, 1% SDS = 100% hemolysis
[4] = ILs conc. 25 µM, 2 h, 37 °C, 1% SDS = 100% hemolysis
[5] = ILs conc. 50 µM, 2 h, 37 °C, 1% SDS = 100% hemolysis

SMILES | MFC (C. albicans SC5314) | MIC90 (C. albicans SC5314) | MFC (C. parapsilosis CBS10947) | MIC90 (C. parapsilosis CBS10947) | MFC (C. glabrata ATCC90030) | MIC90 (C. glabrata ATCC90030) | MFC (C. krusei ATCC6258) | MIC90 (C. krusei ATCC6258) | Percentage of cells forming hyphae (C. albicans [1]) | Reduction of adhesion (C. albicans [2]) | Reduction of adhesion (C. krusei) | Reduction of adhesion (C. parapsilosis; over MIC) | Hemolytic activity (sheep erythroid PMs; [3]) | Hemolytic activity (sheep erythroid PMs; [4]) | Hemolytic activity (sheep erythroid PMs; [5]) | Reduction of adhesion (C. parapsilosis) | Hemolytic activity (sheep erythroid PMs; regardless of the concentration used (12.5; 25 and 50 µM))
CCCCCCCCCn1cc[n+](CO[C@@H]2C[C@H](C)CC[C@H]2C(C)C)c1 [1a, 1-[(1R,2S,5R)-(−)-menthoxymethyl]-3-nonylimidazolium chloride] | 50 µM | 12.5 µM | 50 µM | 12.5 µM | 25 µM | 12.5 µM | 25 µM | 6.25 µM | < 1% | did not influence the adherent properties | approximately 10% | did not influence the adherent properties | 4.81 ± 0.02 % | 1.51 ± 0.53% | 11.56 ± 2.13% |  | 
CCCCCCCCCCn1cc[n+](CO[C@@H]2C[C@H](C)CC[C@H]2C(C)C)c1 [1b, 3-decyl-1-[(1R,2S,5R)-(−)-menthoxymethyl]imidazolium chloride] | 50 µM | 25 µM | 25 µM | 25 µM | 25 µM | 25 µM | 25 µM | 25 µM | < 1% | 20–25% | did not significantly reduce |  | 2.1 ± 0.36% | 3.01 ± 0.39% | 3.23 ± 0.6% | 20–25% | 
CCCCCCCCCOCn1cc[n+](CO[C@@H]2C[C@H](C)CC[C@H]2C(C)C)c1 [2a, 1-(1R,2S,5R)-(−)-menthoxymethyl-3-nonyloxymethylimidazolium chloride] | 25 µM | 12.5 µM | 25 µM | 12.5 µM | 12.5 µM | 12.5 µM | 12.5 µM | 6.25 µM | 78.2 ± 17.2% | 20–30% | 10–20% | 30–40% | 4.55 ± 0.82% | 1.78 ± 0.44% | 6.09 ± 0.48 % |  | < 5%
